# Reference: patent publication US9675694B2, “Polycyclic agents for the treatment of respiratory syncytial virus infections” (Biota Scientific Management Pty Ltd., priority 2006, dated 2017)
# Test system: RSV A2
# Experiment: RSV antiviral cytopathic effect (CPE) assay, MTT readout
# Format: cell-based
# Conditions: human respiratory syncytial virus, HEp-2, 120 h; HEp2 cells infected with RSV A2, moi ~0.01, 5 days; compounds of Table 2; read-out: Activity Range (EC50, RSV A2 antiviral)
# Protocol: Biological Data Method P: RSV Antiviral Assay Protocol
# Compounds of the invention were tested for their antiviral activity against respiratory syncytial virus. Cytopathic effect (CPE) assays were performed essentially as described in the literature (see for example Watanabe et al, 1994, J. Virological Methods, 48:257). Serial dilutions of the test compounds were made in 96 well plates. HEp2 cells (1.0×10^4 cells/well) were infected with RSV at a low multiplicity of infection (e.g. RSV A2 at an moi of ˜0.01) and added to plates to assess antiviral activity. Uninfected HEp2 cells were used to assess compound cytotoxicity. Assays were incubated for 5 days at 37° C. in a 5% CO2 atmosphere. The extent of CPE was determined via metabolism of the vital dye 3-(4, 5-dimethylthiaxol-2-yl)-2,5-diphenyltetrazolium bromide (MTT). MTT (1 mg/ml) was added to each well and plates incubated for 2 hours incubation at 37° C. Wells were aspirated, iso-propanol (200 μL) was added and absorbance values read at 540/690 nm. Compound concentrations that inhibited CPE by 50% (EC50) and developed cytotoxicity (CC50) were calculated using non-linear regression analysis.
row,SMILES,EC50 [nM]
1,O=C(c1ccno1)N1CCN2C(=O)c3ccccc3CC12c1ccc(Cl)cc1 (stereo not drawn) [Compound 1-025],1000 to 5000
2,O=C(Cc1ccccn1)N1CCN2C(=O)c3ccccc3CC12c1ccc(Cl)cc1 (stereo not drawn) [Compound 1-066],1000 to 5000
3,O=C(c1ccoc1)N1CCN2C(=O)c3ccccc3CC12c1ccc(Cl)cc1 (stereo not drawn) [Compound 1-006],< 250
4,COc1ccc(CC(=O)N2CCN3C(=O)c4ccccc4CC23c2ccc(Cl)cc2)cc1 (stereo not drawn) [Compound 1-069],250 to 1000
5,O=C(c1ccc(F)nc1)N1CCN2C(=O)c3ccccc3CC12c1ccc(Cl)cc1 (stereo not drawn) [Compound 1-007],1000 to 5000
6,O=C(NCCc1ccccc1)N1CCN2C(=O)c3cccnc3CC12c1ccc(Cl)cc1 (stereo not drawn) [Compound 1-015],250 to 1000
7,O=C(c1ccc(F)cc1)N1CCN2C(=O)c3ccccc3CC12c1ccc(Cl)cc1 (stereo not drawn) [Compound 1-005],> 5000
8,O=C1c2ccccc2CC2(c3ccc(Cl)cc3)N1CCN2C(=O)c1sccc1Cl (stereo not drawn) [Compound 1-019],250 to 1000
9,O=C(c1cccnc1)N1CCN2C(=O)c3ccccc3CC12c1ccccc1 (stereo not drawn) [Compound 1-003],250 to 1000
10,Cn1cc(C(=O)N2CCN3C(=O)c4ccccc4CC32c2ccc(Cl)cc2)c(C(F)(F)F)n1 (stereo not drawn) [Compound 1-029],250 to 1000
11,O=C(c1ccc(F)cc1)N1CCN2C(=O)c3ccccc3CC12c1ccccc1 (stereo not drawn) [Compound 1-001],250 to 1000
12,O=C(c1ccoc1)N1CCN2C(=O)c3cccnc3CC12c1ccc(Cl)cc1 (stereo not drawn) [Compound 1-043],< 250
13,O=C(c1ccoc1)N1CCN2C(=O)c3ccncc3CC12c1ccc(Cl)cc1 (stereo not drawn) [Compound 1-010],250 to 1000
14,O=C(c1csc(-c2cccnc2)n1)N1CCN2C(=O)c3ccccc3CC12c1ccccc1 (stereo not drawn) [Compound 1-002],250 to 1000
15,"O=C(c1cccnc1)N1CCN2C(=O)c3ccccc3CC12c1ccc(Cl)cc1 (stereo not drawn) [Compound 1-008, 10a-(4-Chlorophenyl)-1-(pyridine-3-carbonyl)-2,3,10,10a-tetrahydro-1H-imidazo[1,2-b]isoquinolin-5-one]",1000 to 5000
16,O=C(c1cccnc1)N1CCN2C(=O)c3cccnc3CC12c1ccc(Cl)cc1 (stereo not drawn) [Compound 1-014],1000 to 5000

# Results, then the compound that gave them:
row,EC50 [nM],SMILES
1,1000 to 5000,CCC(=O)N1CCN2C(=O)c3ccccc3CC12c1ccc(Cl)cc1 (stereo not drawn) [Compound 1-077]
2,250 to 1000,O=C(c1ccc(F)cc1)N1CCN2C(=O)c3cccc(F)c3CC12c1ccc(Cl)cc1 (stereo not drawn) [Compound 1-073]
3,< 250,Cn1cc(C(=O)N2CCN3C(=O)c4cccc(F)c4CC23c2ccc(Cl)cc2)c(C(F)(F)F)n1 (stereo not drawn) [Compound 1-087]
4,< 250,O=C(c1cccs1)N1CCN2C(=O)c3cccnc3CC12c1ccc(Cl)cc1 (stereo not drawn) [Compound 1-101]
5,250 to 1000,"O=C(CNS(=O)(=O)c1ccc(F)cc1)N1CCN2C(=O)c3ccccc3CC12c1ccc(Cl)cc1 (stereo not drawn) [Compound 1-079, N-{2-[10a-(4-Chlorophenyl)-5-oxo-2,3,10,10a-tetrahydro-5H-imidazo[1,2-b]isoquinolin-1-yl]-2-oxoethyl}-4-fluorobenzenesulfonamide]"
6,< 250,O=C(c1ccoc1)N1CCN2C(=O)c3cccc(F)c3CC12c1ccc(Cl)cc1 (stereo not drawn) [Compound 1-071]
7,1000 to 5000,O=C(c1ccc(F)cc1)N1CCN2C(=O)c3ncccc3CC12c1ccc(Cl)cc1 (stereo not drawn) [Compound 1-109]
8,250 to 1000,O=C(c1cccnc1)N1CCN2C(=O)c3ccc(F)cc3CC12c1ccc(Cl)cc1 (stereo not drawn) [Compound 1-083]
